Read-outs that look alike come from different tables or passages of the source.
Experiments:
[1] = Mouse pharmacokinetics of GLP-2 peptibody K274; format: in vivo; details: CD1 mice, Q3D over 14 days
Method: A pharmacokinetics analysis was performed in CD1 mice. […] Mice were divided into groups, with one group administered 0.45 mg/kg every three days (Q3D), another administered 1.5 mg/kg Q3D, another administered 4.5 mg/kg Q3D, and another administered 15 mg/kg Q3D over a 14 day period. After dosing was discontinued, concentrations were measured 3, 9, 14, and 21 days later.

[2] = test system: CD-1 mice; experiment: Histology study of villi length, washout period; format: in vivo, female CD-1 mice; details: 4.5 mg/kg Q3D over 14 days, days 15, 18, 21
Method: Various doses of GLP-2 peptibody B264 were analyzed to assess the pharmacodynamic plateau, with the primary endpoint a measurement of the small intestinal weight relative to the total body weight and a histology study of the length of villi. 11 groups of six female CD-1 mice each were formed.
For histology, four micron paraffin sections were prepared for H&E and Ki67 IHC staining. After whole slide scanning, an imagescope was used to measure villi length and crypt depth, and to analyze Ki67. The antibody against Ki67 is a rabbit antibody sold by Adcam®, catalog number ab 616667. The antibody was used at a working concentration of 1:100 and was detected using a Leica® Refine Kit.
The first day after the washout period ends is day 15, the second day is day 16, etc. Day 2 of the washout period corresponds with day 15. Day 5 of the washout period corresponds with day 18. Day 8 of the washout period corresponds with day 21. D15, D18, and D21 correspond to days 15, 18 and 21 on which the villi length was measured.

[3] = test system: mice; experiment: Fat (triglyceride) tolerance test with olive oil bolus; format: in vivo; details: female mice, 4.5 mg/kg every 3 days for 13 days, olive oil bolus 10 mL/kg, vs vehicle
Method: A fat tolerance assay was performed in mice to assess the ability of GLP-2 peptibody K274 to promote absorption of dietary fats. Dietary fat is hydrolyzed into free fatty acids and glycerides, which are transported through the intestinal villi and absorbed by enterocytes. The enterocytes synthesize the triglycerides, which then enter the bloodstream. Such postprandial triglycerides peak in the bloodstream at about 3 hours after ingestion of a fat-rich meal.
It is hypothesized that GLP-2 peptibody K274, by enhancing length of the intestinal villi, would improve the absorption of fatty acids in a mouse model of short bowel syndrome. Assaying for an increase in peak postprandial triglycerides allows for detection of such increased absorption.
Female mice were divided into two groups of […] mice each. Both groups were treated every 3 days for a total of 13 days either with 4.5 mg/kg K274 peptibody (treated group) or vehicle (control group). On day 14 after start of treatment, mice in both groups were fasted for 6 hours followed by administration of an olive oil bolus of 10 mL/kg. Mice in the treated and control groups were divided into 6 subgroups of 6 animals each. […] Plasma triglyceride concentrations were measured on a Cobas C311 instrument (Roche) using the TRIGB assay kit.

[4] = test system: CD-1 mice; experiment: Pharmacodynamic plateau study (small intestine weight); format: in vivo; details: female CD-1 mice
Method: Various doses of GLP-2 peptibody K274 were analyzed in female CD-1 mice to assess the pharmacodynamic plateau, with the primary endpoint a measurement of the small intestinal weight relative to the total body weight and a histology study of the length of villi. Eight groups of six females each were formed. In two groups, only the vehicle was administered Q3D for as a negative control. In four groups, the following doses were administered Q3D over 14 days: 0.45 mg/kg, 1.5 mg/kg, 4.5 mg/kg and 15 mg/kg. In one additional group, 4.5 mg/kg was administered Q3D for 14 days with the study ending four days later at day 18. In another additional group, 4.5 mg/kg was administered Q3D for 14 days with the study ending seven days later at day 21.
For the primary endpoint, the small intestine weight in grams is shown in FIG. 12A, the small intestine weight normalized to body weight is shown in FIG. 12B, and the colon weight normalized to body weight is shown in FIG. 12C. A dose of 4.5 mg/kg had maximum effect.
FIG. 13B is a graph depicting the percentage change in small intestine weight for both vehicle and GLP-2 peptibody K274.

[5] = Rat pharmacokinetic comparability with/without C-terminal lysine; format: in vivo, Sprague-Dawley rats; details: 1 mg/kg, intravenous and subcutaneous
Method: 1 mg/kg of total GLP-2 peptibody K protein was administered subcutaneously to one group of six male Sprague-Dawley rats. 1 mg/kg of total GLP-2 peptibody K274 protein was administered intravenously to another group of six male Sprague-Dawley rats. 1 mg/kg of total GLP-2 peptibody B protein was administered subcutaneously to a third group of five male Sprague-Dawley rats. 1 mg/kg of total GLP-2 peptibody B264 protein was administered subcutaneously to a fourth group of five male Sprague-Dawley rats.
For all of the above groups, plasma samples were taken pre-dose, and at the following time points post-dose: 5 minutes (day 1), 10 minutes (day 1), 20 minutes (day 1), 30 minutes (day 1), 1 hour (day 1), 2 hours (day 1), 6 hours (day 1), 24 hours (day 2), 48 hours (day 3), 72 hours (day 4), 120 hours (day 6), 168 hours (day 8), 240 hours (day 11), and 336 hours (day 15).
Tables showing the pharmacokinetic data comparing intravenously administered GLP-2 peptibody K and GLP-2 peptibody K274 are in FIG. 10B. Tables showing the pharmacokinetic data comparing subcutaneously administered GLP-2 peptibody K and GL-2 peptibody K274 are in FIG. 10C.

[6] = target: monomer/dimer self-association; experiment: Microscale thermophoresis (MST) monomer/dimer equilibrium; format: physicochemical
Method: (§1) Microscale thermophoresis (MST) and nano differential scanning fluorimetry (NanoDSF) were performed to characterize the dimer-monomer transition. MST was used to determine the monomer/dimer equilibrium dissociation constant Kd. MST is based on thermodriven diffusion of molecules while NanoDSF is based on Trp fluorescence and is commonly used for thermostability Tm.

[7] = Cynomolgus monkey pharmacokinetic study; format: in vivo, cynomolgus monkeys; details: subcutaneous, 12.5 nmol/kg
Method: Pharmacokinetics studies of teduglutide, GLP-2 Peptibody B and GLP-2 Peptibody K were formed in cynomolgus monkeys with citrulline assayed as a biomarker of GLP-2 concentration. In the study, 12.5 nmol/kg teduglutide was administered subcutaneously to a group of 6 male cynomolgus monkeys at day 1. Then for one set of 2 monkeys, 25 nmol/kg GLP-2 Peptibody B was administered intravenously at day 7, day 21, day 28, day 35, and day 42. For another set of 3 monkeys, 25 nmol/kg GLP-2 Peptibody B was administered subcutaneously at day 7, day 21, day 28, day 35, and day 42. For another set of monkeys, 5 nmol/kg GLP-2 Peptibody K was administered intravenously (2 monkeys) and subcutaneously (3 monkeys) at day 7, day 21, day 28, day 35, and day 42. For another set of monkeys, 25 nmol/kg GLP-2 Peptibody K was administered subcutaneously (3 monkeys) and intravenously (2 monkeys) at day 7, day 21, day 28, day 35, and day 42.

[8] = target: GLP-2-Fc self-association; experiment: NanoDSF at room temperature, monomer/dimer self-association; format: physicochemical
Method: as §1
In the NanoDSF assay, room temperature is used and one tryptophan in GLP-2 is targeted that potentially undergoes conformational changes during GLP-2-Fc self-association. Only the tryptophan fluorescence from the protein contributes to the signal. If tryptophan is buried or stable, the peak is at 330 nm and if the tryptophan is exposed or flexible, the peak is at 350 nm.

[9] = cited from earlier work

| Kd [6] | Vc [7] | association constant (ka) [7] | Kd [8] | Compound | CL/F [1] | Vc [1] | persistence of villi length during washout period [2] | postprandial triglyceride concentration in the bloodstream [3] | persistence of increased small intestine weight normalized to body weight after dosing ([4]; 4.5 mg/kg Q3D for 14 days, washout) | dose with maximum effect on small intestine / colon weight ([4]; Q3D over 14 days) | pharmacokinetic comparability of K and K274 [5] | half-life ([9]; SBS patients) | half-life ([9]; healthy patients) |
| --- | --- | --- | --- | --- | --- | --- | --- | --- | --- | --- | --- | --- | --- |
|  |  |  |  | GLP-2 peptibody K274: GLP-2[A2G]-GGGGSGGGGSGGGGS linker-IgG1 Fc (LALA) without C-terminal lysine; SEQ ID NO: 7 | 3.39 mL/h/kg | 0.213 L/kg | more persistence than does GLP-2 peptibody B264 | significantly higher | persisted for at least five days after dosing | 4.5 mg/kg | identical from a pharmacokinetic point of view |  |  |
| 24 ± 3 µM | 0.218 L/kg | 9.67 day⁻¹ | 77 ± 14 µM | CC[C@H](C)[C@H](NC(=O)[C@H](Cc1ccccc1)NC(=O)[C@H](CC(=O)O)NC(=O)[C@H](CCCNC(=N)N)NC(=O)[C@H](C)NC(=O)[C@H](C)NC(=O)[C@H](CC(C)C)NC(=O)[C@H](CC(N)=O)NC(=O)[C@H](CC(=O)O)NC(=O)[C@H](CC(C)C)NC(=O)[C@@H](NC(=O)[C@@H](NC(=O)[C@H](CC(N)=O)NC(=O)[C@H](CCSC)NC(=O)[C@H](CCC(=O)O)NC(=O)[C@H](CC(=O)O)NC(=O)[C@H](CO)NC(=O)[C@H](Cc1ccccc1)NC(=O)[C@H](CO)NC(=O)CNC(=O)[C@H](CC(=O)O)NC(=O)CNC(=O)[C@@H](N)Cc1c[nH]cn1)[C@@H](C)O)[C@@H](C)CC)C(=O)N[C@@H](CC(N)=O)C(=O)N[C@@H](Cc1c[nH]c2ccccc12)C(=O)N[C@@H](CC(C)C)C(=O)N[C@H](C(=O)N[C@@H](CCC(N)=O)C(=O)N[C@H](C(=O)N[C@@H](CCCCN)C(=O)N[C@H](C(=O)N[C@H](C(=O)N[C@@H](CC(=O)O)C(=O)O)[C@@H](C)O)[C@@H](C)CC)[C@@H](C)O)[C@@H](C)CC [teduglutide] |  |  |  |  |  |  |  | ~1.3 h | approximately 2 hours |

— US20230031280A1, “GLP-2 FUSION POLYPEPTIDES AND USES FOR TREATING AND PREVENTING GASTROINTESTINAL CONDITIONS” (SHIRE-NPS PHARMACEUTICALS, INC., priority 2017, published 2023)
